Experimental data reported in article PMC9186362, “Design and biological evaluation of substituted 5,7-dihydro-6H-indolo[2,3-c]quinolin-6-one as novel selective Haspin inhibitors” (Journal of Enzyme Inhibition and Medicinal Chemistry, 2022).

Columns and labels:
Test in all cases: SelectScreen Adapta
Assay type in all cases: biochemical
[1] = target: T1, PI4KA (PI4K alpha) (Homo sapiens, UniProt P42356); conditions: ATP 10 µM, read-out: Percentage of inhibition
T1 construct: purchased Life Technologies (SelectScreen Whole Panel)
Experimental: (§1) We further evaluated the selectivity profile of compound 55 on a larger panel of kinases (SelectScreen Whole Panel, Life Technologies). The inhibition profile of 55, evaluated at 1 μM, is depicted on a dendrogram on Figure 3 where kinases inhibited by a minimum of 80% are shown. A full list of the kinases tested is shown on Table S1 in supplementary information.

[2] = target: T2, PI4K2B (PI4K2 beta) (Homo sapiens, UniProt Q8TCG2); conditions: ATP Km, read-out: Percentage of inhibition
T2 construct: purchased Life Technologies (SelectScreen Whole Panel)
Experimental: as §1

[3] = target: T3, PIP5K1C (Homo sapiens, UniProt O60331); conditions: ATP 10 µM, read-out: Percentage of inhibition
T3 construct: purchased Life Technologies (SelectScreen Whole Panel service)
Experimental: as §1

[4] = target: NUAK1 (ARK5) (Homo sapiens, UniProt O60285); conditions: ATP Km, read-out: Percentage of inhibition
Experimental: as §1

[5] = target: DAPK1 (Homo sapiens, UniProt P53355); conditions: ATP Km, read-out: Percentage of inhibition
Experimental: as §1

[6] = target: T4, PIK3C3 (hVPS34) (Homo sapiens, UniProt Q8NEB9); conditions: ATP Km, read-out: Percentage of inhibition
T4 construct: purchased Life Technologies (SelectScreen)
Experimental: as §1

[7] = target: T5, PIP5K1B (Homo sapiens, UniProt O14986); conditions: ATP 10 µM, read-out: Percentage of inhibition
T5 construct: purchased Life Technologies
Experimental: as §1

[8] = target: T6, PIK3CA/PIK3R3 (p110 alpha/p55 gamma) (Homo sapiens, UniProt P42336); conditions: ATP Km, read-out: Percentage of inhibition
T6 construct: purchased Life Technologies (SelectScreen Whole Panel)
Experimental: as §1

[9] = target: T7, LRRK2 (Homo sapiens, UniProt Q5S007); conditions: ATP Km, read-out: Percentage of inhibition
T7 construct: purchased Life Technologies (SelectScreen service)
Experimental: as §1

[10] = target: T8, PIK3CB/PIK3R1 (p110 beta/p85 alpha) (Homo sapiens, UniProt P42338); conditions: ATP Km, read-out: Percentage of inhibition
T8 construct: purchased Life Technologies (SelectScreen)
Experimental: as §1

[11] = target: T9, SPHK1 (Homo sapiens, UniProt Q9NYA1); conditions: ATP Km, read-out: Percentage of inhibition
T9 construct: purchased Life Technologies (SelectScreen Whole Panel)
Experimental: as §1

[12] = target: PIK3C2B (Homo sapiens, UniProt O00750); conditions: ATP 10 µM, read-out: Percentage of inhibition
Experimental: as §1

[13] = target: T10, PIP5K1A (Homo sapiens, UniProt Q99755); conditions: ATP 10 µM, read-out: Percentage of inhibition
T10 construct: purchased Life Technologies (SelectScreen service)
Experimental: as §1

[14] = target: T11, PIK3C2G (PI3K-C2 gamma) (Homo sapiens, UniProt O75747); conditions: ATP Km, read-out: Percentage of inhibition
T11 construct: purchased Life Technologies (SelectScreen Whole Panel service)
Experimental: as §1

[15] = target: T12, SPHK2 (Homo sapiens, UniProt Q9NRA0); conditions: ATP 10 µM, read-out: Percentage of inhibition
T12 construct: purchased Life Technologies (SelectScreen Whole Panel)
Experimental: as §1

[16] = target: T13, IRAK1 (Homo sapiens, UniProt P51617); conditions: ATP Km, read-out: Percentage of inhibition
T13 construct: purchased Life Technologies (SelectScreen service)
Experimental: as §1

[17] = target: T14, PI4K2A (PI4K2 alpha) (Homo sapiens, UniProt Q9BTU6); conditions: ATP Km, read-out: Percentage of inhibition
T14 construct: purchased Life Technologies (SelectScreen Whole Panel)
Experimental: as §1

[18] = target: PIK3CA E542K/PIK3R1 (p110 alpha E542K/p85 alpha (Homo sapiens, UniProt P42336, E542K)); conditions: ATP 10 µM, read-out: Percentage of inhibition
Experimental: as §1

[19] = target: T15, PIK3CB/PIK3R2 (p110 beta/p85 beta) (Homo sapiens, UniProt P42338); conditions: ATP Km, read-out: Percentage of inhibition
T15 construct: purchased Life Technologies
Experimental: as §1

[20] = target: T16, CDK4/cyclin D3 (Homo sapiens, UniProt P11802); conditions: ATP 10 µM, read-out: Percentage of inhibition
T16 construct: purchased Life Technologies
Experimental: as §1

[21] = target: T17, LRRK2 FL (Homo sapiens, UniProt Q5S007); conditions: ATP Km, read-out: Percentage of inhibition
T17 construct: purchased Life Technologies
Experimental: as §1

[22] = target: PIK3CA/PIK3R1 (p110 alpha/p85 alpha) (Homo sapiens, UniProt P42336); conditions: ATP Km, read-out: Percentage of inhibition
Experimental: as §1

[23] = target: T18, CDK4/cyclin D1 (Homo sapiens, UniProt P11802); conditions: ATP 10 µM, read-out: Percentage of inhibition
T18 construct: purchased Life Technologies (SelectScreen Whole Panel service)
Experimental: as §1

[24] = target: PIK3CG (p110 gamma) (Homo sapiens, UniProt P48736); conditions: ATP Km, read-out: Percentage of inhibition
Experimental: as §1

[25] = target: T19, GSG2 (Haspin) (Homo sapiens, UniProt Q8TF76); conditions: ATP Km, read-out: Percentage of inhibition
T19 construct: purchased Life Technologies (SelectScreen Whole Panel)
Experimental: as §1

[26] = target: CDK6/cyclin D1 (Homo sapiens, UniProt Q00534); conditions: ATP 10 µM, read-out: Percentage of inhibition
Experimental: as §1

[27] = target: T20, LRRK2 G2019S (Homo sapiens, UniProt Q5S007, G2019S); conditions: ATP Km, read-out: Percentage of inhibition
T20 construct: purchased Life Technologies
Experimental: as §1

[28] = target: T21, LRRK2 G2019S FL (Homo sapiens, UniProt Q5S007, G2019S); conditions: ATP Km, read-out: Percentage of inhibition
T21 construct: LRRK2 G2019S FL; purchased Life Technologies (SelectScreen Whole Panel)
Experimental: as §1

[29] = target: T22, CAMK1 (CaMK1) (Homo sapiens, UniProt Q14012); conditions: ATP 10 µM, read-out: Percentage of inhibition
T22 construct: purchased Life Technologies (SelectScreen Whole Panel service)
Experimental: as §1

[30] = target: T23, CHUK (IKK alpha) (Homo sapiens, UniProt O15111); conditions: ATP Km, read-out: Percentage of inhibition
T23 construct: purchased Life Technologies
Experimental: as §1

[31] = target: PIP4K2A (Homo sapiens, UniProt P48426); conditions: ATP 10 µM, read-out: Percentage of inhibition
Experimental: as §1

[32] = target: CDK9/cyclin T1 (Homo sapiens, UniProt P50750); conditions: ATP Km, read-out: Percentage of inhibition
Experimental: as §1

[33] = target: T24, LRRK2 R1441C (Homo sapiens, UniProt Q5S007, R1441C); conditions: ATP Km, read-out: Percentage of inhibition
T24 construct: purchased Life Technologies
Experimental: as §1

[34] = target: T25, LRRK2 I2020T (Homo sapiens, UniProt Q5S007, I2020T); conditions: ATP Km, read-out: Percentage of inhibition
T25 construct: purchased Life Technologies (SelectScreen Whole Panel)
Experimental: as §1

[35] = target: T26, PI4KB (PI4K beta) (Homo sapiens, UniProt Q9UBF8); conditions: ATP Km, read-out: Percentage of inhibition
T26 construct: purchased Life Technologies
Experimental: as §1

[36] = target: PIK3C2A (PI3K-C2 alpha) (Homo sapiens, UniProt O00443); conditions: ATP Km, read-out: Percentage of inhibition
Experimental: as §1

T10 sequence (Q99755 whole entry): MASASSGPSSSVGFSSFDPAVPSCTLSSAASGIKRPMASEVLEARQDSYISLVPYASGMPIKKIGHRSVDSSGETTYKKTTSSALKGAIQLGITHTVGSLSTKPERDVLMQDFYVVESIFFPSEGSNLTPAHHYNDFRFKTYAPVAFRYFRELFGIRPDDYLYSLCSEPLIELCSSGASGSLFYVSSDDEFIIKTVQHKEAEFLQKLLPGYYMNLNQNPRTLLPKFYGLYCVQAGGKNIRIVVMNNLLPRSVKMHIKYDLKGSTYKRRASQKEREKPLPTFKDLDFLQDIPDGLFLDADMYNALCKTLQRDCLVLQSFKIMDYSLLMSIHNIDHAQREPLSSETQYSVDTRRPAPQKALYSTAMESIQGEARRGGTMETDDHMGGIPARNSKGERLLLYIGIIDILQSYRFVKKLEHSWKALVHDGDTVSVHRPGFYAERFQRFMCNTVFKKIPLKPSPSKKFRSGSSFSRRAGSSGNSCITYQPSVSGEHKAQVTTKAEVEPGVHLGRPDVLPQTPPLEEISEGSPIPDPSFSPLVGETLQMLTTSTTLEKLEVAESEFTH
T5 sequence (O14986 whole entry): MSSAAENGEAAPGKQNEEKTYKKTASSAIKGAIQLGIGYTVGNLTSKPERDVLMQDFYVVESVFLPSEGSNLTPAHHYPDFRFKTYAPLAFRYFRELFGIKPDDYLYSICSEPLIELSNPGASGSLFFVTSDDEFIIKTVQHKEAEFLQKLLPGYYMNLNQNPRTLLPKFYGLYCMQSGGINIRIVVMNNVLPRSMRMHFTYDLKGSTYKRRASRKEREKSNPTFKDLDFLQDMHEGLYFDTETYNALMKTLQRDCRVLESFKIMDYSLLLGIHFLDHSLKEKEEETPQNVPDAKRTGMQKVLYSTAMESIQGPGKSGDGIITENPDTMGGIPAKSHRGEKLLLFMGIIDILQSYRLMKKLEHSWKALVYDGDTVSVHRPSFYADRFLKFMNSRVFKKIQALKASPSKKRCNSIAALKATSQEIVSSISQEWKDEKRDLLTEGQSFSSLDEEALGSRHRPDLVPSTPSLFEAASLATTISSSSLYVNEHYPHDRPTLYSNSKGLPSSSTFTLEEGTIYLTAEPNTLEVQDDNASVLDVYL
T24 sequence (Q5S007 970-2527 R1441C limits assumed): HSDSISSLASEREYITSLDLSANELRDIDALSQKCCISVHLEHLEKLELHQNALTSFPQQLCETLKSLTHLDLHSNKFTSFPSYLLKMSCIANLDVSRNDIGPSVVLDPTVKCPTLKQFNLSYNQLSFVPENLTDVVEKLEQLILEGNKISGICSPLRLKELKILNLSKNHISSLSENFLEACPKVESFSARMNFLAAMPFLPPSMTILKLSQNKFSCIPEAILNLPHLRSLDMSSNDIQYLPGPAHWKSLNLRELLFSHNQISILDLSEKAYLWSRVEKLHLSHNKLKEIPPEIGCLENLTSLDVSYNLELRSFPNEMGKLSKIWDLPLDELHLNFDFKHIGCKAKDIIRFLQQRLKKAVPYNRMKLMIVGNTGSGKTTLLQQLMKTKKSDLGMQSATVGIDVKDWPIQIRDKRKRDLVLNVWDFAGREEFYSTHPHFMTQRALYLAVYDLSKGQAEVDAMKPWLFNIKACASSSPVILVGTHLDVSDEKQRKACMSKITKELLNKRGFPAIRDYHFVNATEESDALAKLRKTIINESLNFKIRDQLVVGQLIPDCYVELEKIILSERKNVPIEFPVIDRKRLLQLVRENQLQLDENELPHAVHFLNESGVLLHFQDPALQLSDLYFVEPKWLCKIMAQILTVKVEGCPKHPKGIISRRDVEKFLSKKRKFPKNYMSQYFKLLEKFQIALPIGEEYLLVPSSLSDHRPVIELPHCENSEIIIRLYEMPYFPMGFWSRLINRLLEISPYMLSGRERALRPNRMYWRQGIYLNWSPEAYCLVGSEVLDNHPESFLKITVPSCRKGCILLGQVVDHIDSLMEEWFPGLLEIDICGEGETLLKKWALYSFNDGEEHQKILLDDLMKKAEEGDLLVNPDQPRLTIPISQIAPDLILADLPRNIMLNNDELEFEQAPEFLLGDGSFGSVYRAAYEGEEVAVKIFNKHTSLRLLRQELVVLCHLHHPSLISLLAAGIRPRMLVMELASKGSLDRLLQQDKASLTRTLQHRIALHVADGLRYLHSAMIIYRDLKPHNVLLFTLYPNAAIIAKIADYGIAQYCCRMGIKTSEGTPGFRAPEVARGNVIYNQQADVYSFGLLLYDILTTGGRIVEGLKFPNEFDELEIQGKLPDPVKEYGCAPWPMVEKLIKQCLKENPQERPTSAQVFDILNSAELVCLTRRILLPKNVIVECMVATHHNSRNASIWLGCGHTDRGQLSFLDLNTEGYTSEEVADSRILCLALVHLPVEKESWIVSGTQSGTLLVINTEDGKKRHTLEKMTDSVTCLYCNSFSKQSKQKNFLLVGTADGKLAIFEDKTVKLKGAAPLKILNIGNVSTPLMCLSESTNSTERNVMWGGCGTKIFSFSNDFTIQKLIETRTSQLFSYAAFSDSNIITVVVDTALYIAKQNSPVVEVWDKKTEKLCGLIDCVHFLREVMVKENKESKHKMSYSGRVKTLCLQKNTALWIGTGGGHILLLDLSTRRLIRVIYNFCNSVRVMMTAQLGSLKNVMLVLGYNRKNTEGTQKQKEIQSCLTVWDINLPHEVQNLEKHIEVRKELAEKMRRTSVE
DAPK1, sequence (P53355 whole entry): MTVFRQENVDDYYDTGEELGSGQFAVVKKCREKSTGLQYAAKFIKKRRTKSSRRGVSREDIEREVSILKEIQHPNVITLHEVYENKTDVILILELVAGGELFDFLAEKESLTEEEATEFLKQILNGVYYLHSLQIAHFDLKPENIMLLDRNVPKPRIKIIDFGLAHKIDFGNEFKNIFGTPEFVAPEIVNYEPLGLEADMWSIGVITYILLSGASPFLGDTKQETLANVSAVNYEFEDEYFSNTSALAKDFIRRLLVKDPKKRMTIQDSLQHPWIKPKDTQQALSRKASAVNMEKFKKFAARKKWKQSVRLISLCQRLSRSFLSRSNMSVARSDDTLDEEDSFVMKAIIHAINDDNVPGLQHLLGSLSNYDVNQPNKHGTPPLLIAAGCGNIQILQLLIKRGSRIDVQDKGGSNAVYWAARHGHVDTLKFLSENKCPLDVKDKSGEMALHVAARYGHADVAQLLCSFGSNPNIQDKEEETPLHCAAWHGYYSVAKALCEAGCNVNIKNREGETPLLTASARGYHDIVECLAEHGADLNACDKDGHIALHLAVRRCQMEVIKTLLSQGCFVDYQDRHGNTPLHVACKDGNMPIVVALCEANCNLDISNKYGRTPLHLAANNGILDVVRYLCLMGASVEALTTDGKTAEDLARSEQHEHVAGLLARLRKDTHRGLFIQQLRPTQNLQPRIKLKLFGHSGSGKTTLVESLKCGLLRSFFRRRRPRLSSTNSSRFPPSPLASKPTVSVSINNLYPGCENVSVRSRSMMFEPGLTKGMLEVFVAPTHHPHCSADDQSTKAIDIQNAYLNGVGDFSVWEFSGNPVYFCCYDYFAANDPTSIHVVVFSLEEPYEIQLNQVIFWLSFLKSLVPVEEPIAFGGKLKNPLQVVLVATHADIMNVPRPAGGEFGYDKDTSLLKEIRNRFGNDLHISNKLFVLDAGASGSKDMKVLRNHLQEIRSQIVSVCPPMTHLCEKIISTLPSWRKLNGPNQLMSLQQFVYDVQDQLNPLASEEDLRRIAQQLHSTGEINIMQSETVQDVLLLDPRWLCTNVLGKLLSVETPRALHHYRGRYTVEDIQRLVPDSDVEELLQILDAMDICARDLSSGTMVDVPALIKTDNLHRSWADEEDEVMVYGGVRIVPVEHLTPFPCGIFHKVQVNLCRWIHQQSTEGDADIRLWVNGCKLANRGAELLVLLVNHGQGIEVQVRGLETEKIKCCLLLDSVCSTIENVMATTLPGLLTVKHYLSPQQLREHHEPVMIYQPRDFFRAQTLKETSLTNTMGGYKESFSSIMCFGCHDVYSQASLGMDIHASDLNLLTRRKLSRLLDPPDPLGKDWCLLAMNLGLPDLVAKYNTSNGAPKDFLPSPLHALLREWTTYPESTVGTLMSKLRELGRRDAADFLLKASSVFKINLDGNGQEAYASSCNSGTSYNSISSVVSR
T3 sequence (O60331 whole entry): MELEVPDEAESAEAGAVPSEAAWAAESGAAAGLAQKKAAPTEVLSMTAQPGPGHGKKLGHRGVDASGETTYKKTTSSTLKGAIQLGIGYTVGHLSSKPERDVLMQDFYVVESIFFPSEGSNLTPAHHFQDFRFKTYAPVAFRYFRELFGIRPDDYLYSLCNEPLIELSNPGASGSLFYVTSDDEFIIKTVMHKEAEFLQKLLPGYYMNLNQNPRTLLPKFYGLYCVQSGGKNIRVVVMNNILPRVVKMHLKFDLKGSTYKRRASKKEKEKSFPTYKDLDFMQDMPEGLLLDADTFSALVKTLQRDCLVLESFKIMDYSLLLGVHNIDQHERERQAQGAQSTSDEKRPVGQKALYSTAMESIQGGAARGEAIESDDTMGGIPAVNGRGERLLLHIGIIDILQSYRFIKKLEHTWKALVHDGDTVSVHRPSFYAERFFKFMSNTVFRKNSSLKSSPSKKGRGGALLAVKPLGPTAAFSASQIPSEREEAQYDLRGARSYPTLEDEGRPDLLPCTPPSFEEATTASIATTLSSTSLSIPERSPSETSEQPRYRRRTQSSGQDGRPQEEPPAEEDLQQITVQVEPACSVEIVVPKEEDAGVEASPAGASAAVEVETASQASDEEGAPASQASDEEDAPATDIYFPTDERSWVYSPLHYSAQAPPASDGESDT
T7 sequence (Q5S007 970-2527 limits assumed): as the sequence (Q5S007 970-2527 R1441C limits assumed) above, with C472R counted along it
T25 sequence (Q5S007 970-2527 I2020T limits assumed): as the sequence (Q5S007 970-2527 R1441C limits assumed) above, with C472R, I1051T counted along it
T20 sequence (Q5S007 970-2527 G2019S limits assumed): as the sequence (Q5S007 970-2527 R1441C limits assumed) above, with C472R, G1050S counted along it

## COc1ccc2[nH]c3c(=O)[nH]c4ccc(O)cc4c3c2c1 [Compound 55, 2-Hydroxy-10-methoxy-5,7-dihydro-6H-indolo[2,3-c]quinolin-6-one]
[1]
  inhibition at 1 µM: 0%
[2]
  inhibition at 1 µM: 1%
[3]
  inhibition at 1 µM: 49%
[4]
  inhibition at 1 µM: 65%
[5]
  inhibition at 1 µM: 57%
[6]
  inhibition at 1 µM: 9%
[7]
  inhibition at 1 µM: 33%
[8]
  inhibition at 1 µM: 53%
[9]
  inhibition at 1 µM: 90%
[10]
  inhibition at 1 µM: 9%
[11]
  inhibition at 1 µM: -3%
[12]
  inhibition at 1 µM: 67%
[13]
  inhibition at 1 µM: 23%
[14]
  inhibition at 1 µM: 47%
[15]
  inhibition at 1 µM: -1%
[16]
  inhibition at 1 µM: 91%
[17]
  inhibition at 1 µM: 1%
[18]
  inhibition at 1 µM: 70%
[19]
  inhibition at 1 µM: 33%
[20]
  inhibition at 1 µM: 5%
[21]
  inhibition at 1 µM: 95%
[22]
  inhibition at 1 µM: 62%
[23]
  inhibition at 1 µM: 12%
[24]
  inhibition at 1 µM: 19%
[25]
  inhibition at 1 µM: 100%
[26]
  inhibition at 1 µM: 14%
[27]
  inhibition at 1 µM: 95%
[28]
  inhibition at 1 µM: 98%
[29]
  inhibition at 1 µM: 10%
[30]
  inhibition at 1 µM: 38%
[31]
  inhibition at 1 µM: 13%
[32]
  inhibition at 1 µM: 70%
[33]
  inhibition at 1 µM: 93%
[34]
  inhibition at 1 µM: 100%
[35]
  inhibition at 1 µM: 41%
[36]
  inhibition at 1 µM: 14%
